# Experimental data: patent US7294637B2 (Sepracor, Inc., priority 2000, dated 2007)
# Where two headings read alike, the source gives them in different places.
# What was measured:
# [1] = rodents, ex vivo binding; cited from earlier work
# rats and monkeys = settings: cited from earlier work; for effect on self-administration of cocaine: rats and monkeys
# dopamine transporter [2] = target: dopamine transporter (Rattus norvegicus, UniProt P23977); settings: read-out: binding affinity for the dopamine transporter (IC50); cited from earlier work
# [3] = locomotor activity tests; cited from earlier work
# [4] = cited from earlier work; for time of peak uptake into the brain: dosed intravenously; for half-life in the brain: intravenous
# [5] = baboon, cited from earlier work
# [6] = target: T1, norepinephrine transporter (Homo sapiens, UniProt P23975); test: NE uptake: displacement of norephinephrine ligands in vitro (methods of Galli et al.); type: binding
# serotonin transporter [7] = target: T2, serotonin transporter (Homo sapiens, UniProt P31645); test: 5-HT uptake: displacement of serotonin ligands in vitro (methods of Gu et al.); type: binding
# ICR derived mice = test: In vivo evaluation of 4: acute toxic symptoms, autonomic effects and mortality after i.v. dosing; parameters: species or system mouse; settings: i.v., 5, 10, 20, and 30 mk/kg
# Protocol: Compound 4 was administered i.v. to a group of 3 ICR derived male or female mice (˜22 gms) and observed for the presence of acute toxic symptoms (mortality, convulsions, tremors, muscle relaxation, sedation, etc.) and autonomic effects (diarrhea, salvation, lacrimation, vasodilation, piloerection, etc) during first 5 min (i.v).
# Compound 4 was administered at doses of 5, 10, 20, and 30 mk/kg. […] After monitoring daily for 3 days, no mortality was observed.
# DAT [8] = target: T3, DAT (Homo sapiens, UniProt Q01959); test: cell-based; parameters: expressed in transfected cells; settings: hDAT cell line; read-out: DA Uptake, Functional Assays (antagonism, EC50)
# dopamine transporter [9] = target: dopamine transporter (Homo sapiens, UniProt Q01959); test: DA uptake: displacement of dopamine ligands in vitro (methods of Gu et al.); settings: DA Uptake, Uptake Profile (IC50, nM), displacement of dopamine ligands in vitro
# [10] = target: T1, norepinephrine transporter; test: Functional activity, norephinephrine uptake inhibition in MDCK cell lines; type: cell-based
# Sprague-Dawley rats [11] = test: Spontaneous locomotor activity in rats (Example 123); type: in vivo, rat; settings: 20 mg/kg i.p., 60 minutes after administration
# Protocol: Male Sprague-Dawley rats, (Iffa Credo, Saint-Germain/L'Arbresle, France), weighing 200-250 g at the beginning of the study, were used.
# During acclimatization period, rats were housed, 2 or 3 per cage, in Makrolon type III cages, in the animal room (temperature: 20±2° C., humidity: minimum 45%, air changes:>12 per hour, light/dark cycle of 12 h/12 h [on at 7:00 A.M.]). Animals were allowed a minimum of 5 days period before experiment for acclimatization.
# Rats received food (TrouwNutrition, Vigny, France) and water (tap water in water bottle) ad libitum. Rats were placed on a sawdust bedding in their cages (Goldchips, Trouw Nutrition, Vigny, France). On the day before experiments, food was withdrawn to have animals fasted overnight.
# On the day of experiment, test item(s) were solubilized in 5% dextrose (w/v)/polyethylene glycol (PEG) 400 (4:1 v/v).
# All test compounds were administered at 20 mg/kg as a single i.p. dose.
# Twenty, 60 and 120 minutes after administration, rats were placed in a plastic box 30×30 cm in a room with low light intensity (maximum 50 lux). Locomotor activity was determined during 20 min periods using a video image analyzer (Videotrack, View Point, France). Number of occurences, distance and duration of fast and slow movements, number of occurences and duration of periods of inactivity and number of rears were measured.
# mouse = test: Acute toxicity assessment, maximum tolerated dose i.v., mouse; type: in vivo; settings: mice, 30 mg/kg i.v.
# Protocol: (§1) An in vivo evaluation was carried out to determine the maximum tolerated dose of numerous test compounds in two animal species (mouse and rat). The compounds were administered i.v. and the animals were then observed for 72 h. Compounds 114, 115, 113, 110, 124, 125, 129, and 130 were solubilized in 5% dextrose (w/v)/polyethylene glycol 400 (4:1 v/v). Compounds 126, 127, 131, and 132 were solubilized in 10% hydroxypropyl-β-cyclodextrin (w/v).
# rat = test: Acute toxicity assessment, maximum tolerated dose i.v., rat; type: in vivo; settings: rats, 30 mg/kg i.v.
# Protocol: as §1
# serotonin transporter [12] = target: T2, serotonin transporter; test: Functional activity, serotonin uptake inhibition in human HEK-293 cell lines; type: cell-based; parameters: expressed in transfected cells; host or cells: HEK-293; settings: 5-HT Uptake, Functional Assays (antagonism, EC50, nM)
# Sprague-Dawley rats [13] = test: Spontaneous locomotor activity in rats (Example 141); type: in vivo, rat; settings: 10 mg/kg i.p.
# Protocol: The effect of 124 and 126 on spontaneous locomotor activity in rats was determined according to the procedures outlined by Silverman et al. (Motor Activity. In “Animal behavior in the laboratory”, Chapman and Hall eds, London, p. 79-92, 1978) and Boissier et al. (Arch. Int. Pharmacodyn. 1965, 158, 212. )
# Test items and test item vehicles were administered to male Sprague-Dawley rats (n=10) as a single i.p. dose (vehicle A=10% hydroxypropyl-β-cyclodextrin in water; vehicle B=4:1 5% aqueous dextrose:PEG 400). […] Locomotor activity was determined during 20 minute periods using video image analyzers. Images recorded with video cameras were digitalized and displacements of the center of gravity of the digital image spot were tracked and analyzed. When the speed of displacement of the center of gravity of the spot was below 4.26 cm/sec, the movement was considered as inactivity. When this speed was between 4.26 and 6.75 cm/sec, the movement was considered as a small movement. When this speed was above 6.75 cm/sec, the movement was considered as a large movement. The number of occurrences, distance and duration of fast and slow movements, number of occurrences and duration of periods of inactivity and number of rears were measured.
# Sprague-Dawley rats [14] = test: Spontaneous locomotor activity in rats, 1-24 hours (Example 223); type: in vivo, rat; settings: 10 mg/kg i.p.
# Protocol: The effect of 124 and 126 on spontaneous locomotor activity in rats was determined according to the procedures outlined by Silverman et al. (Motor Activity. In “Animal behavior in the laboratory”, Chapman and Hall eds, London, p. 79-92, 1978) and Boissier et al. (Arch. Int. Pharmacodyn. 1965, 158, 212. ) Test items and test item vehicles were administered to male Sprague-Dawley rats (n=10) as a single i.p. dose. One, three, five, eight and twenty four hours following administration, rats were placed in a plastic box 30×30 cm in a room with low light intensity (maximum 50 lux). Locomotor activity was determined during 20 minute periods using video image analyzers. Images recorded with video cameras were digitalized and displacements of the center of gravity of the digital image spot were tracked and analyzed. When the speed of displacement of the center of gravity of the spot was below 4.26 cm/sec, the movement was considered as inactivity. When this speed was between 4.26 and 6.75 cm/sec, the movement was considered as a small movement. When this speed was above 6.75 cm/sec, the movement was considered as a large movement. The number of occurrences, distance and duration of fast and slow movements, number of occurrences and duration of periods of inactivity and number of rears were measured.
# DAT [15] = target: T3, DAT; settings: dosed orally, 60 mg; cited from earlier work
# [16] = NE Uptake, Uptake Profile (IC50, nM)
# [17] = 5-HT Uptake, Uptake Profile (IC50, nM)
# [18] = displacement of serotonin ligands in vitro, read-out: 5-HT Uptake, Uptake Profile (IC50)
# T3 sequence (Q01959 whole entry): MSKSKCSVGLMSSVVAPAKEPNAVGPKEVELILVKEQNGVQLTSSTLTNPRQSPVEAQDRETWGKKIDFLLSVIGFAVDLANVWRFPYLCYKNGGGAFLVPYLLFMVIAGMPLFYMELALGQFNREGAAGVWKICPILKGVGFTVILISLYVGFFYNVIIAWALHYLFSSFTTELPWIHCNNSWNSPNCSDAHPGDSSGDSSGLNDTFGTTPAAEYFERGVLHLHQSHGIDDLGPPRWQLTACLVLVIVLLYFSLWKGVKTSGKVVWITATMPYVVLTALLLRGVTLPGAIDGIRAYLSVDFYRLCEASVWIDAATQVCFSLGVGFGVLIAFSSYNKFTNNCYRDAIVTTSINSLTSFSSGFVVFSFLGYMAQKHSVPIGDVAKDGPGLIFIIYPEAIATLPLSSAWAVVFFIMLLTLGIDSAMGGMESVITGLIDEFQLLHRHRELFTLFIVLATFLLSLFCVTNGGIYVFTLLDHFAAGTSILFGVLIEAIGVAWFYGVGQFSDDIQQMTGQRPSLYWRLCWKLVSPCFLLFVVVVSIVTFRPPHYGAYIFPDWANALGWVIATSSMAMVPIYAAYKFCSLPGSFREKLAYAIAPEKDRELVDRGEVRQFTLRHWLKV
# Sequence of dopamine transporter (Homo sapiens, UniProt Q01959) (Q01959 whole entry): as above
# T2 sequence (P31645 whole entry): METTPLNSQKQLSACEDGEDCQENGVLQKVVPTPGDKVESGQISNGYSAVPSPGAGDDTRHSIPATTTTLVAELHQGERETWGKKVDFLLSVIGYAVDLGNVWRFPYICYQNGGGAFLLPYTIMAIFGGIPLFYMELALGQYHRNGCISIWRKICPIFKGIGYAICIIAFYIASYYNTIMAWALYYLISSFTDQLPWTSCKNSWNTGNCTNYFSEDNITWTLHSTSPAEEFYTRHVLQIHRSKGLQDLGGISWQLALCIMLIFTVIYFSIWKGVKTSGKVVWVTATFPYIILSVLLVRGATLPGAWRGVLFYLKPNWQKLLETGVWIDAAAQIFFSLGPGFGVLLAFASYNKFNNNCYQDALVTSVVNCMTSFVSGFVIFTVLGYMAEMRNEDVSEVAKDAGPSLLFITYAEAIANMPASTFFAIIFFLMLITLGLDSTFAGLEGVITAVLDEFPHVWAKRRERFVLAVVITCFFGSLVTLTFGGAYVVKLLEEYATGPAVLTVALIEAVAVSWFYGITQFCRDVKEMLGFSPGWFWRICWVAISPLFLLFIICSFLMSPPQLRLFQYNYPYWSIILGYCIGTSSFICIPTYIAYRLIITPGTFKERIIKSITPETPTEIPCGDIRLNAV
# T1 sequence (P23975 whole entry): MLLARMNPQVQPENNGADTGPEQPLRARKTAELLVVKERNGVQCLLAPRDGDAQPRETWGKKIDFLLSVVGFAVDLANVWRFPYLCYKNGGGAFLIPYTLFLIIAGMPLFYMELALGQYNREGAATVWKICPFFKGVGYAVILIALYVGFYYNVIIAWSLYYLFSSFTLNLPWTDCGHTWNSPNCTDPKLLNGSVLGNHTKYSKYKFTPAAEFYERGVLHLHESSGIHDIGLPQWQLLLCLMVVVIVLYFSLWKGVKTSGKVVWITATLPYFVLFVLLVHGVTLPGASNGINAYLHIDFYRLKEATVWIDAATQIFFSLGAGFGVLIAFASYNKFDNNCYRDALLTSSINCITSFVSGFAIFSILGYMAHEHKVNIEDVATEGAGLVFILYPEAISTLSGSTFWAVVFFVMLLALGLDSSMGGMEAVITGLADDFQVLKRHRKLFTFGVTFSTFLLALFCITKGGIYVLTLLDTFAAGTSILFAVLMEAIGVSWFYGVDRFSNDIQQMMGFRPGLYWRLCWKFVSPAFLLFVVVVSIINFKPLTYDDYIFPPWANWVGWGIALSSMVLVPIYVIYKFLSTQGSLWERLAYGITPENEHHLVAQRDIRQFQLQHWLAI
# Sequence of dopamine transporter (Rattus norvegicus, UniProt P23977) (P23977 whole entry): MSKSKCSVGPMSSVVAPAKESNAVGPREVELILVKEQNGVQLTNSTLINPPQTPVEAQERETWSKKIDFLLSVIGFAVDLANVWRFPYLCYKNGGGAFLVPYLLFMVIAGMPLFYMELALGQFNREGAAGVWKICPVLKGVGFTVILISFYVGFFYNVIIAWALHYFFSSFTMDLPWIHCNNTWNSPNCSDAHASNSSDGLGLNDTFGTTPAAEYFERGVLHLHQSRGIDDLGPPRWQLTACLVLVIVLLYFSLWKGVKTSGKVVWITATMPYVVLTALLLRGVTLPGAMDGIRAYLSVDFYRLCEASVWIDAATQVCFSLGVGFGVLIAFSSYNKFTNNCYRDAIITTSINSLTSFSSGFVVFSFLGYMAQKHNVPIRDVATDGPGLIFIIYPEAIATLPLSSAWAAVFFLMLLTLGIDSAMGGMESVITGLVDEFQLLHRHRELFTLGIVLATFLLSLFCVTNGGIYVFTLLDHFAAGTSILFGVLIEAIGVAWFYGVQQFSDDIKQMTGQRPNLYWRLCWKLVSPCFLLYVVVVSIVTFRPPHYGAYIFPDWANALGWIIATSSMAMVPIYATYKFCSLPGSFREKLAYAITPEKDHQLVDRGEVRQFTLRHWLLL
smiles,measurement,setting,value
"CCC(=O)[C@H]1[C@@H](c2ccc(C)cc2)C[C@@H]2CC[C@H]1N2C [PPT, 2β-propanoyl-3β-(4-tolyl)-tropane]",time of onset after administration,[1],ca. 30 minutes
same,addictiveness,rats and monkeys; monkeys,not addictive
same,decrease of self-administered cocaine intake,rats and monkeys; monkeys,70%
CN1[C@H]2CC[C@@H]1[C@@H](C(=O)Oc1ccccc1)[C@@H](c1ccc(Cl)cc1)C2 [RTI-113],IC50,dopamine transporter [2],1.98 nM
same,duration of action,[3],over 4 hours
same,time to peak action after administration,[3],30 to 60 min
same,effectiveness of elimination of cocaine consumption,rats and monkeys; 60% occupancy of the dopamine transporter,92%
same,effect on self-administration of cocaine,rats and monkeys,inhibits self-administration of cocaine
Cc1ccc(-c2cc([C@@H]3C4CCC(C[C@@H]3c3ccc(Cl)cc3)N4C)on2)cc1 (stereo partly drawn) [RTI-336],IC50,dopamine transporter [2],4.09 nM
same,time to peak action after administration,[3],70 to 100 min
same,effect on self-administration of cocaine,rats and monkeys,effective blocking of cocaine self-administration
COC(=O)[C@H]1[C@@H](OC(=O)c2ccccc2)C[C@@H]2CC[C@H]1N2C [cocaine],time of peak uptake into the brain,[4],4 to 6 min
same,half-life in the brain,[4],20 min
same,time to peak concentration in brain,[5]; intravenous,4 to 6 min
Clc1ccc(C2(CN3CCCC(COc4ccccc4)C3)CCC2)cc1 (stereo not drawn) [compound 4],IC50,[6]; [16],> 1000 nM
same,IC50,serotonin transporter [7]; [17],> 1000 nM
same,change in autonomic signs of behavior,ICR derived mice,No obvious change
same,mortality,ICR derived mice; monitored daily for 3 days,no mortality
same,EC50,DAT [8],< 1000 nM
same,IC50,dopamine transporter [9],< 1000 nM
"Clc1ccc(C2(CN3CCC[C@@H](COc4ccc5c(c4)OCO5)C3)CCC2)cc1 [compound 110, (R)-3-(Benzo[1,3]dioxol-5-yloxymethyl)-1-[1-(4-chloro-phenyl)-cyclobutylmethyl]-piperidine]",IC50,[6]; [16],< 1000 nM
same,IC50,serotonin transporter [7]; [18],< 1000 nM
same,EC50,[10],< 1000 nM
same,locomotor activity compared to control animals,Sprague-Dawley rats [11],significant increase
same,tolerability and mortality after 72 h,mouse,well tolerated
same,tolerability and mortality after 72 h,rat,well tolerated
same,EC50,DAT [8],< 10 nM
same,EC50,serotonin transporter [12],> 1000 nM
same,IC50,dopamine transporter [9],< 100 nM
"Clc1ccc(C2(CN3CCC[C@H](COc4ccc5c(c4)OCO5)C3)CCC2)cc1 [compound 113, (S)-3-(Benzo[1,3]dioxol-5-yloxymethyl)-1-[1-(4-chloro-phenyl)-cyclobutylmethyl]-piperidine]",IC50,[6]; [16],< 1000 nM
same,IC50,serotonin transporter [7]; [18],< 1000 nM
same,EC50,[10],< 1000 nM
same,locomotor activity compared to control animals,Sprague-Dawley rats [11],significant increase
same,tolerability and mortality after 72 h,mouse,well tolerated
same,tolerability and mortality after 72 h,rat,well tolerated
same,EC50,DAT [8],< 10 nM
same,EC50,serotonin transporter [12],> 1000 nM
same,IC50,dopamine transporter [9],< 100 nM
"FC(F)(F)c1ccc(OC[C@@H]2CCCN(CC3(c4ccc(Cl)cc4)CCC3)C2)cc1 [compound 114, (R)-1-[1-(4-chloro-phenyl)-cyclobutylmethyl]-3-(4-trifluoromethyl-phenoxymethyl)-piperidine]",IC50,"[6]; read-out: NE Uptake, Uptake Profile (IC50)",< 1000 nM
same,IC50,"serotonin transporter [7]; read-out: 5-HT Uptake, Uptake Profile (IC50)",> 1000 nM
same,EC50,[10],< 1000 nM
same,locomotor activity compared to control animals,Sprague-Dawley rats [11],significant increase
same,tolerability and mortality after 72 h,mouse,well tolerated
same,tolerability and mortality after 72 h,rat,well tolerated
same,EC50,DAT [8],< 10 nM
same,EC50,serotonin transporter [12],> 1000 nM
same,IC50,dopamine transporter [9],< 100 nM
"FC(F)(F)c1ccc(OC[C@H]2CCCN(CC3(c4ccc(Cl)cc4)CCC3)C2)cc1 [compound 115, (S)-1-[1-(4-chloro-phenyl)-cyclobutylmethyl]-3-(4-trifluoromethyl-phenoxymethyl)-piperidine]",IC50,[6]; [16],< 1000 nM
same,IC50,serotonin transporter [7]; [17],> 1000 nM
same,EC50,[10],< 1000 nM
same,locomotor activity compared to control animals,Sprague-Dawley rats [11],significant increase
same,tolerability and mortality after 72 h,mouse,well tolerated
same,tolerability and mortality after 72 h,rat,well tolerated
same,EC50,DAT [8],< 10 nM
same,EC50,serotonin transporter [12],> 1000 nM
same,IC50,dopamine transporter [9],< 100 nM
"COC(=O)C(c1ccccc1)C1CCCCN1 (stereo not drawn) [methylphenidate, reference compound]",Large Movement Occurrences,Sprague-Dawley rats [13]; 20 min,974.3 ± 125.5 ^
same,Small Movement Occurrences,Sprague-Dawley rats [13]; 20 min,1537.0 ± 97.3 ^
same,Large Movement Occurrences,Sprague-Dawley rats [13]; 60 min,423.9 ± 75.9
same,Small Movement Occurrences,Sprague-Dawley rats [13]; 60 min,992.0 ± 126.7 ^
same,Large Movement Occurrences,Sprague-Dawley rats [13]; 120 min,191.8 ± 37.1 ^
same,Small Movement Occurrences,Sprague-Dawley rats [13]; 120 min,555.0 ± 87.0
same,Large Movement Occurrences,Sprague-Dawley rats [14]; 1 hour,958 ± 118 ^
same,Small Movement Occurrences,Sprague-Dawley rats [14]; 1 hour,1595 ± 83 ^
same,Large Movement Occurrences,Sprague-Dawley rats [14]; 3 hours,504 ± 114 ^
same,Small Movement Occurrences,Sprague-Dawley rats [14]; 3 hours,1072 ± 122^
same,Large Movement Occurrences,Sprague-Dawley rats [14]; 5 hours,196 ± 62^
same,Small Movement Occurrences,Sprague-Dawley rats [14]; 5 hours,612 ± 108 ^
same,Large Movement Occurrences,Sprague-Dawley rats [14]; 8 hours,71 ± 20 ^
same,Small Movement Occurrences,Sprague-Dawley rats [14]; 8 hours,358 ± 65^
same,Large Movement Occurrences,Sprague-Dawley rats [14]; 24 hours,335 ± 68^
same,Small Movement Occurrences,Sprague-Dawley rats [14]; 24 hours,790 ± 81^
same,time of peak uptake into the brain,[4],8 to 10 min
same,half-life in the brain,[4],90 min
same,DAT occupancy,DAT [15],70-72%
same,“high” in subjects,DAT [15],no “high” was observed
same,time to peak concentration in brain,[5]; intravenous,8 to 10 min
same,time to peak concentration in brain,[5]; orally dosed,60 min
